Consider nine substances from US7538185B2, “Glucagon-like peptide-1 analogs with long duration of action” (Theratechnologies Inc., priority 2004, dated 2009).

The subject of data set [1] is CD-1 mice. The experiment in a line: Post-prandial blood glucose levels in CD-1 mice (Example 2, FIG. 1). Conditions: CD-1 mice fasted overnight, fed 30 minutes, peptides 400 μg/kg sc, blood glucose followed 6 hours. The class given is in vivo. As to the method:
Various peptides, including peptides of the present invention (400 μg/kg), were administered sc at 30 minutes and the blood glucose levels were determined for the next 6 hours. The data are presented as mean ±SEM values;
Overnight fasted CD-1 normal female mice (6 wk. Charles River, Montreal, Canada), were fed ad libidum for 30 minutes. […] Blood samples were drawn by tail vein excision and blood glucose levels (mmol/L) were determined for the next 6 hours using a One-Touch™ glucometer.

Data set [2] relates to cAMP production in RINm5F cells. The experiment in a line: cAMP production in RINm5F cells (Example 5). Conditions: 30 minutes at 37° C., 0.1 mM IBMX, mean ± SEM. The class given is cell-based. As to the method:
RINm5F cells (ATCC # CRL-2058) were grown according to the manufacturer's specifications. Cells from approximately 90% confluent flasks were trypsinized and counted. […] Samples of the stock solutions were then aliquoted in 100 μl volumes (100 μg), to which were then added 400 μl H2O. The aliquots were then frozen and lyophilized overnight. The lyophilized samples were kept at −80° C. until used. The samples were prepared just prior to running the experiments, at a concentration of 1 mM (accounting for peptide purity and peptide content when available). From 2× stock solutions, dose-responses (10^−10 M to 10^−5 M) were measured in RPMI containing 0.1 mM IBMX. […] Cell culture media was gently aspired from the wells. The cells were then pre-incubated in 100 μl RPMI 0.1 mM IBMX at 37° C. for 10 minutes. […] At the end of the incubation period, the supernatant was collected and assayed for cAMP concentration, using a radioimmunoassay kit (DPC). Radioactive counts were transformed into cAMP amounts using a standard curve. The obtained cAMP values were corrected for the total protein in the corresponding wells as determined using the Coomassie blue assay. The cAMP values are expressed as mean ±SEM in pmol/mg protein (Table 3). Dose responses of cAMP were fitted to a sigmoidal curve model (fixed slope) using GraphPad Prism 3.02™. When performing a protein assay, the amount of protein per well is assayed for each sample. The cells were lysed with NaOH (0.1 N) and a 10 μl aliquot was used to assay the protein levels. This is done using Coomassie Blue (Pierce) and an automated plate reader Emax Pro™ (Molecular Devices).
In general terms: Cyclic AMP is a second messenger, typically raised through Gs and lowered through Gi signalling.

For data set [3] the following is noted: active GLP-1; Holst 1994; cited from earlier work.
For data set [4] the following is noted: Nauck 1996; Todd 1998; cited from earlier work.
The target in data set [5] is T1, GLP-1 receptor in RINm5F cells (Rattus norvegicus, UniProt P32301).
T1 construct: The cell membranes were diluted to obtain aliquots of 400 μg of protein per assay tube; host or cells: RINm5F cells, sonicated to a membrane preparation
T1 sequence (P32301 22-463): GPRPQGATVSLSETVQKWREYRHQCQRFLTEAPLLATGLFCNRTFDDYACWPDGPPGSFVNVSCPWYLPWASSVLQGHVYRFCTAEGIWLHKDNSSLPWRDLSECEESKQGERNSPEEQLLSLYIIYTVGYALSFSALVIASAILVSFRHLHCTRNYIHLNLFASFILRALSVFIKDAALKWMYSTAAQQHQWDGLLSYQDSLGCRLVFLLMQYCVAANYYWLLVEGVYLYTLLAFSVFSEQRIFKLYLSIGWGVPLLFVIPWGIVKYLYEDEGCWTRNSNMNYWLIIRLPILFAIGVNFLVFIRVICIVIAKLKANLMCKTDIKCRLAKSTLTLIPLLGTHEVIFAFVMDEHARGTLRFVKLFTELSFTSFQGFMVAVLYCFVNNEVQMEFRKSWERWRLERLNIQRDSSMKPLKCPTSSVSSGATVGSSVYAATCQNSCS
Description: Displacement of 125I-GLP-1(7-36)NH2 using RINm5F cells (Example 4, FIG. 3). Conditions: RINm5F cell membranes, 400 μg protein, 22° C., 45 minutes. It is filed as binding. As to the method: The IC50 is calculated as the half-maximal inhibition of binding of the radiolabeled peptide; RINm5F cells (ATCC # CRL-2058) were grown according to the manufacturer's specifications. Cells from confluent flasks were maintained for four (4) days prior to the experiment. The cells were then scrapped and collected in 15 ml conical tubes followed by sonication and evaluation of protein levels. The cell membranes were diluted to obtain aliquots of 400 μg of protein per assay tube. Aliquots of RINm5F cells containing 400 μg of protein were incubated at 22° C. […] The reactions were stopped using 100 mM Tris-HCl (3×3 mL, pH 7.4) and the solutions passed through a GF/C Whatman glass microfiber filter. The latter was subsequently placed into glass tubes and counted on a Packard COBRA II Gamma counter™. Displacement isotherms were traced and analyzed using Prism™ (GraphPad, Ca).
On the technique in general: Displacement assays read how much labelled ligand stays bound in the presence of the test substance.

The test system of another data set is Sprague-Dawley rats. Description: Blood glucose levels in Sprague-Dawley rats under hyperglycemic clamping (Example 3, FIG. 2). The class given is in vivo. Conditions: hyperglycemic clamping at 15 mM, sc. How it is done:
Various peptides, including peptides of the present invention (100 μg/kg) were administered sc. Alterations in blood glucose levels (Delta glucose: mM) are shown on the abscissa. The data are presented as mean ±SEM values;
The animals (Sprague-Dawley rats) were maintained on standard laboratory chow under a 12:12 light:dark cycle. Following a 12 hour fasting period, the animals were anesthetized (Isoflurane 2%) and a carotid and jugular catheter installed to allow blood withdrawal and glucose injections (1.0 g/kg bolus followed by an infusion of 1.4 g/kg/hr) respectively. The animals received a subcutaneous injection of the analogs at different concentrations (300 μg/kg) 90 minutes after initiating the glucose bolus and infusion, at a time period where blood glucose concentrations have reached a steady level. Blood glucose measurements were taken prior to and 30, 60, 90, 100, 110, 120, 135, 150, 180, 210, and sometimes 240 and 300 minutes after the injection of glucose.
Glucose measurements were carried out immediately following sampling (0.3-0.4 ml; if needed) by placing a blood droplet on a glucometer strip. The glucose measurements were carried out prior to plasma separation (centrifugation) required to perform the insulin and/or any other assay.

The subject of data set [6] is CD-1 mice. The experiment in a line: Post-prandial glucose lowering in fed CD-1 mice (Example 6, FIG. 4). It is filed as in vivo. Conditions: 400 μg/kg sc, AUC glucose over 6 hours. How it is done:
Post-prandial AUC glucose levels for a 6 hour period are presented as a bar (mean ±SEM; n=the number of animals as presented above the bar). […] FIGS. 5, 6, 7 and 8 illustrate the effect (dose response) on post-prandial glucose levels in CD-1 mice for selected analogs. […] The blood glucose levels were measured for a period of up to 6 hours following injection (mean ±SEM; upper panel). The AUC glucose for the 6 hours period is presented as a bar (mean ±SEM; lower panel; n is the number of animals as presented on top of the lower panel bars); The animals (CD-1 mice) were maintained on standard laboratory chow under a 12:12 light:dark cycle. The animals were kept in groups of 4 mice per cage. […] The amount of food eaten was monitored. The food was then removed and the animals were injected subcutaneously with either vehicle or with a GLP-1 analogue to be tested. […] A small piece of the tip of the tail of the CD-1 mice was cut with a scalpel and a drop of blood drawn by applying light pressure with the thumb and index from the base of the tail to the tip. The drop of blood was placed on a glucometer strip (Accucheck™ compact, Roche) and a reading obtained. The scab was removed and the same procedure applied for each subsequent measurement.

The subject of data set [7] is streptozotocin-induced diabetic CD-1 mice. Description: Glucose lowering in fed streptozotocin-induced diabetic CD-1 mice (Example 8, FIGS. 12-16). It is filed as in vivo. Particulars: for glucose levels of streptozotocin-induced diabetic mice / duration of action: fed STZ-induced diabetic CD-1 mice, sc; for duration of action: FIGS. 12-16. As to the method: Blood glucose levels were measured for 12 hours post-injection (mean ±SEM; upper panel). […] In order to compare the duration of the effects of TH0396 and Exendin-4™, the glucose levels at the last hour of observation were analyzed in a dose-dependent manner. […] At 10:00 am, the animals were injected subcutaneously with the agent. Blood glucose levels were measured for 12 hours post-injection (mean ±SEM; upper panel). Average glucose levels at 11 and 12 hours are presented after subtracting the fed glucose levels of normal mice (n is the number of animals as presented on top of the lower panel bars). The animals (CD-1 mice) were maintained on standard laboratory chow under a 12:12 light:dark cycle. The animals were kept in groups of 4 mice per cage. […] The amount of food eaten was monitored for the duration of the experiment. […] A small piece of the tip of the tail of the CD-1 mice was cut with a scalpel and a drop of blood drawn by applying light pressure with the thumb and index from the base of the tail to the tip. The drop of blood was placed on a glucometer strip (Accucheck™ compact, Roche) and a reading obtained. The scab was removed and the same procedure applied for each subsequent measurement.

Take “2-Hydroxybenzoyl-NH-His-Ala-Glu-Gly-Thr-Phe-Thr-Ser-Asp-Val-Ser-Ser-Tyr-Leu-Glu-Gly-Gln-Ala-Ala-Lys-Glu-Phe-Ile-Ala-Trp-Leu-Val-Lys-Gly-Arg-NH2 [TH0318]”: the “duration of hypoglycemic action” value in the data set with CD-1 mice [1] came to 2 h. Moreover, in data set [2], a half-maximal response (EC50) required 13.6 ± 2.9 nM and the Maximal response is recorded as 3.5 ± 0.2 pmol/mg protein.

For “HAEGTFTSDVSSYLEGQAAKEFIAWLVKGR [GLP-1, reference compound]”, the metabolic clearance rate in data set [3] is 12 to 13 min. Further, the “duration of hypoglycemic action” value in data set [4] is 2 to 3 h. Besides, the “duration of hypoglycemic action” value in the data set on CD-1 mice [1] was 2 h. In data set [2], this substance registered an EC50 of 1.8 ± 0.9 nM and a Maximal response of 1.5 ± 0.3 pmol/mg protein.

For the substance “His-Ala-Glu-Gly-Thr-Phe-Thr-Ser-Asp-Val-Ser-Ser-Tyr-[(S)-Octylglycine]-Glu-Gly-Gln-Ala-Ala-Lys-Glu-Phe-Ile-Ala-Trp-Leu-Val-Lys-Gly-Arg-NH2 [TH0322]”, in data set [5], the “potency in displacing receptor bound ligand (125I-GLP-1(7-36)NH2)” value was “considerably more potent than GLP-1”. In data set [2], this substance displayed an EC50 of 0.2 ± 0.2 nM and a Maximal response of 1.0 ± 0.2 pmol/mg protein.

“His-Gly-Glu-Gly-Thr-Phe-Thr-Ser-Asp-Val-Ser-Ser-Tyr-Leu-Glu-Gly-Gln-Ala-Ala-Lys-Ala-Phe-lle-Glu-Trp-Leu-Lys-Asn-NH2 [TH0384]”: in data set [5], the “potency in displacing receptor bound ligand (125I-GLP-1(7-36)NH2)” value is given as “considerably more potent than GLP-1”. The “potency on blood glucose levels (delta glucose)” value with Sprague-Dawley rats is “more potent than GLP-1 or the 2-hydroxybenzoyl-GLP-1 analog TH0318”.

Consider “His-Gly-Glu-Gly-Thr-Phe-Thr-Ser-Asp-Val-Ser-Ser-Tyr-[(S)-Octylglycine]-Glu-Gly-Gln-Ala-Ala-Lys-Ala-Phe-Ile-Glu-Trp-Leu-Lys-Asn-NH2 [TH0397]”, for which the “reduction of post-prandial glucose” value in the data set on CD-1 mice [6] was “potently reduce post-prandial glucose”.

On to “trans-3-hexenoyl-NH-His-Ala-Glu-Gly-Thr-Phe-Thr-Ser-Asp-Val-Ser-Ser-Tyr-[(S)-Octylglycine]-Glu-Gly-Gln-Ala-Ala-Lys-Ala-Phe-Ile-Glu-Trp-Leu-Lys-Asn-NH2 [TH0395]”, for which the “potency compared with Exendin-4” value in data set [7] (STZ-induced diabetic mice, initial 6 hours of the study, FIG. 14) is listed as “more potent then Exendin-4™”. Besides, in data set [7], the “glucose levels of streptozotocin-induced diabetic mice” value is “down to those seen in normal feeding mice” and the duration of action entry is “extended duration of action”. For the same substance, the “reduction of post-prandial glucose” value in the data set with CD-1 mice [6] was “potently reduce post-prandial glucose”. In data set [2], this substance showed an EC50 of 6.1 ± 0.9 nM and a Maximal response of 3.7 ± 0.4 pmol/mg protein.

Regarding “trans-3-hexenoyl-NH-His-Ala-Glu-Gly-Thr-Phe-Thr-Ser-Asp-Val-Ser-Ser-Tyr-[(S)-Octylglycine]-Glu-Gly-Gln-Ala-Ala-Lys-Ala-Phe-Ile-Glu-Trp-Leu-Val-Lys-Asn-NH2 [TH0396]”, in data set [7], the “glucose levels of streptozotocin-induced diabetic mice” value is “down to those seen in normal feeding mice” and the duration of action result is listed as “extended duration of action”. The “reduction of post-prandial glucose” value in the data set on CD-1 mice [6] was “potently reduce post-prandial glucose”. Further, in data set [2], the EC50 stood at 2.3 ± 1.7 nM and the Maximal response came to 3.9 ± 0.3 pmol/mg protein.

In data set [2], “trans-3-hexenoyl-NH-His-Ala-Glu-Gly-Thr-Phe-Thr-Ser-Asp-Val-Ser-Ser-Tyr-[(S)-Octylglycine]-Glu-Gly-Gln-Ala-Ala-Lys-Glu-Phe-Ile-Ala-Trp-Leu-Val-Lys-Aib-Arg-NH2 [TH0426]” came in with an EC50 of 0.4 ± 0.4 nM and a Maximal response of 5.7 ± 0.6 pmol/mg protein.

Turning to “trans-3-hexenoyl-NH-His-Ala-Glu-Gly-Thr-Phe-Thr-Ser-Asp-Val-Ser-Ser-Tyr-[(S)-Octylglycine]-Glu-Gly-Gln-Ala-Ala-Lys-Glu-Phe-Ile-Ala-Trp-Leu-Val-Lys-Gly-Arg-NH2 [TH0424]”, in data set [7], the “glucose levels of streptozotocin-induced diabetic mice” value was “down to those seen in normal feeding mice” and the duration of action result is listed as “extended duration of action”. For the same substance, the “reduction of post-prandial glucose” value with CD-1 mice [6] was “potently reduce post-prandial glucose”. In data set [2], the EC50 turned out to be 6.3 ± 1.7 nM and the Maximal response is 4.3 ± 0.2 pmol/mg protein.

By EC50 is commonly meant the concentration that produces a half-maximal response. Read a high EC50 as weaker potency.
